Laboratory results: PubChem BioAssay (NCI)
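Cultured in 96-well plates, cells were exposed to test compound for 48 hours across five concentrations. GI50 = concentration required for 50% inhibition of growth. The concentration for full growth arrest is given as TGI.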

Assays:
Experiment in all cases: NCI anticancer screen, dose series, 48 h
SN12C renal = system: SN12C renal
M14 melanoma = system: M14 melanoma
SK-MEL-5 melanoma = system: SK-MEL-5 melanoma
HCT-116 colon = system: HCT-116 colon
MALME-3M melanoma = system: MALME-3M melanoma
U251 CNS = system: U251 CNS
HCT-15 colon = system: HCT-15 colon
RXF 393 renal = system: RXF 393 renal
SK-MEL-2 melanoma = system: SK-MEL-2 melanoma
BT-549 breast = system: BT-549 breast

| SMILES | TGI (SN12C renal) | TGI (M14 melanoma) | TGI (SK-MEL-5 melanoma) | TGI (HCT-116 colon) | TGI (MALME-3M melanoma) | TGI (U251 CNS) | TGI (HCT-15 colon) | TGI (RXF 393 renal) | TGI (SK-MEL-2 melanoma) | TGI (BT-549 breast) | GI50 (SN12C renal) | GI50 (M14 melanoma) | GI50 (SK-MEL-5 melanoma) | GI50 (HCT-116 colon) | GI50 (U251 CNS) | GI50 (HCT-15 colon) | GI50 (RXF 393 renal) | GI50 (BT-549 breast) | GI50 (SK-MEL-2 melanoma) | GI50 (MALME-3M melanoma) |
| --- | --- | --- | --- | --- | --- | --- | --- | --- | --- | --- | --- | --- | --- | --- | --- | --- | --- | --- | --- | --- |
| CC12CCC(=O)N1c1ccc([N+](=O)[O-])cc1N2 (centres undefined) | > 100 µM | > 100 µM | > 100 µM | > 100 µM | > 100 µM | > 100 µM | > 100 µM | > 100 µM | > 100 µM |  |  |  |  |  |  |  |  |  |  |  |
| Cc1ccccc1NC(=O)C(=O)C(C#N)c1ccccc1C (centres undefined) | > 100 µM | > 100 µM | > 100 µM | > 100 µM | > 100 µM | > 100 µM | > 100 µM | > 100 µM | > 100 µM |  |  |  |  |  |  |  |  |  |  |  |
| O=C1c2sccc2-c2cccc3cccc1c23 (tested in a mixture with another compound) | 89.4 µM | > 100 µM |  | > 100 µM | 9.06 µM | 23 µM | 24.9 µM | > 100 µM | > 100 µM | 25.7 µM |  |  |  |  |  |  |  |  |  |  |
| OC(C#Cc1ccccc1)(c1ccccc1)c1ccccc1 | > 100 µM | > 100 µM | 37.7 µM | > 100 µM | 60.2 µM | 83.4 µM | > 100 µM |  | 55.4 µM | > 100 µM |  |  |  |  |  |  |  |  |  |  |
| O=S(=O)(c1cccc(N=C=S)c1)c1cccc(N=C=S)c1 | 37.7 µM | 25.6 µM | 36.3 µM | 32 µM | 34.9 µM | 35.4 µM | 33.8 µM | 30 µM | 33.8 µM |  |  |  |  |  |  |  |  |  |  |  |
| Cc1ccc(S(=O)(=O)N/N=C(/CC(=O)c2c(C)n([O-])c3ccccc3[n+]2=O)C(=O)Nc2ccccc2C)cc1 | > 100 µM | > 100 µM |  | > 100 µM | > 100 µM | > 100 µM | > 100 µM | > 100 µM | > 100 µM |  |  |  |  |  |  |  |  |  |  |  |
| COc1ccc(-c2nc(/C=C3\SC(=NCc4ccccc4)NC3=O)c3ccccn23)cc1 | 4.63 µM | 2.42 µM | 3.19 µM | 1.06 µM |  |  | 2.18 µM | 2.97 µM | 7.25 µM | 3.1 µM | 1.68 µM | 1.12 µM | 1.51 µM | 0.276 µM | 1.95 µM | 1.47 µM | 1.18 µM | 1.38 µM | 2.19 µM |  |
| N#CC(C#N)c1ccc(C(=O)N2CCC[C@H]2CO)cc1 | > 100 µM | > 100 µM | > 100 µM |  | > 100 µM | > 100 µM | > 100 µM | > 100 µM | > 100 µM |  |  |  |  |  |  |  |  |  |  |  |
| CC(=O)OCCOCNC(=S)N/N=C/c1cc(Br)cs1 | > 100 µM | > 100 µM | > 100 µM | > 100 µM | > 100 µM | > 100 µM | > 100 µM | > 100 µM | > 100 µM |  |  |  |  |  |  |  |  |  |  |  |
| COCOCC/C=C/C=O | > 100 µM | > 100 µM | > 100 µM | > 100 µM | > 100 µM | > 100 µM | > 100 µM | > 100 µM | > 100 µM |  |  |  |  |  |  |  |  |  |  |  |
| N#CC(c1ccccn1)c1nc2ccccc2[nH]1 (centres undefined) | > 100 µM | > 100 µM | > 100 µM | > 100 µM | > 100 µM | > 100 µM |  |  | > 100 µM |  |  |  |  |  |  |  |  |  |  |  |
| CC1(C)CC(=O)C2=C(C1)OC(N)=C(c1nc(-c3ccccc3)cs1)C2c1ccc(Br)cc1 (centres undefined) | > 150 mg/L | > 150 mg/L | > 150 mg/L | > 150 mg/L | > 150 mg/L | > 150 mg/L | > 150 mg/L | 126 mg/L | > 150 mg/L |  | 51.8 mg/L | 103 mg/L | 38.7 mg/L | 55.7 mg/L | 71.2 mg/L | 36.1 mg/L | 42.5 mg/L |  | 79 mg/L | > 150 mg/L |
| CCc1cccc(C)c1NC(=O)c1sc2nc3c(cc2c1N)C(=O)CCC3 | > 100 µM | 25.8 µM | 5.89 µM | > 100 µM | 98.8 µM | > 100 µM | > 100 µM |  | 27.3 µM | > 100 µM | 0.909 µM | 0.43 µM | 0.353 µM | 0.564 µM | 0.659 µM | 0.495 µM |  | 8.58 µM | 0.365 µM | 0.685 µM |
| CC(C)(O)CNc1nc(Nc2ccnc(C(F)(F)F)c2)nc(-c2cccc(C(F)(F)F)n2)n1 | 54.4 µM | 34.6 µM | 26.3 µM | 44.5 µM | 43.3 µM | 78.2 µM | 79.8 µM | 48.4 µM |  | 39.7 µM | 19.1 µM | 16.1 µM | 13.2 µM | 17.6 µM | 25.9 µM | 19.7 µM | 20.7 µM | 16.7 µM |  | 21.1 µM |
| CN(CCNCc1ccccn1)CCNCc1ccccn1 | 17.2 µM | 5.93 µM | 3.16 µM | 4.7 µM | 3.94 µM | 12 µM | 12.6 µM | 3.81 µM |  | 4.63 µM | 4.33 µM | 2.26 µM | 1.75 µM | 2.18 µM | 3.48 µM | 2.96 µM | 1.94 µM | 1.98 µM |  | 1.46 µM |
| O=C(c1nc2ccccc2[nH]c1=O)C(O)c1ccccc1 (centres undefined) | > 100 µM | > 100 µM | > 100 µM | > 100 µM | > 100 µM | > 100 µM | > 100 µM |  | > 100 µM |  |  |  |  |  |  |  |  |  |  |  |
| NC(=O)C(=O)C1CCC2=C(Sc3ccccc3N2)C1=O (centres undefined) |  | > 100 µM | > 100 µM | > 100 µM | > 100 µM | > 100 µM | > 100 µM | > 100 µM | > 100 µM |  |  |  |  |  |  |  |  |  |  |  |
| COc1ncnc(NS(=O)(=O)c2ccc(N=C3C(=O)N(CN4CCN(c5c(F)cc6c(=O)c(C(=O)O)cn(C7CC7)c6c5OC)CC4C)c4ccc(Br)cc43)cc2)c1OC (centres undefined) | 23.4 µM | > 50 µM | 14.5 µM | > 50 µM |  | > 50 µM | > 50 µM | 33 µM | > 50 µM | 19.9 µM | 10.1 µM | 15.3 µM | 5.52 µM | 9.96 µM | 19.7 µM | 4.73 µM | 12.9 µM | 6.57 µM | 20.5 µM |  |
